Like-named read-outs stand apart in the source and are kept apart here. One block for each compound: values may come before it. No end group written: not given here.
Columns and labels:
SIRT3 [1] = molecular target: T1, SIRT3 (Homo sapiens, UniProt Q9NTG7); experiment: Fluorescence polarization assay, SIRT3 deacetylation of Histone H4-based peptide substrate; assay type: biochemical
T1 construct: amino acid residues 102-399 of human SIRT3 with an N-terminal His-tag; His-tag (N); made in house; host or cells: E. coli
T1 sequence (Q9NTG7 102-399): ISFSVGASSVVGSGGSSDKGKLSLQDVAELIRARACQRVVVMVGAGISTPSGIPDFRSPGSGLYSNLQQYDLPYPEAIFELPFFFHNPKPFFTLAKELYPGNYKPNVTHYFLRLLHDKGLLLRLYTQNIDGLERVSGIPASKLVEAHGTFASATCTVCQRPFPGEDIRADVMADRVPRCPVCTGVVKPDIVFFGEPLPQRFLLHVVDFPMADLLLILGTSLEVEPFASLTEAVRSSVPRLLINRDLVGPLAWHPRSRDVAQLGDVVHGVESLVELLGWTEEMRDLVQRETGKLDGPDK
Text: A fluorescence polarization assay was used to identify modulators of SIRT3 activity. The same assay may be used to identify modulators of any sirtuin protein. The assay utilizes a peptide substrate based on a fragment of Histone H4, a known sirtuin deacetylation target. […] The peptide is labeled with the fluorophore MR121 (excitation 635 nm/emission 680 nm) at the C-terminus and biotin at the N-terminus.
The peptide substrate is exposed to a sirtuin protein in the presence of NAD^+ to allow deacetylation of the substrate and render it sensitive to cleavage by trypsin. Trypsin is then added and the reaction is carried to completion (i.e., the deacetylated substrate is cleaved) releasing the MR121 fragment. Streptavidin is then added to the reaction where it can bind both the uncleaved substrate (i.e., any remaining acetylated substrate) and the non-fluorescent portion of the cleaved peptide substrate (i.e., the biotin containing fragment). The fluorescence polarization signal observed for the full length peptide substrate bound to streptavidin is higher than the fluorescence polarization signal observed for the released MR121 C-terminal fragment. Therefore, the fluorescence polarization obtained is inversely proportional to the level of deacetylation (e.g., the signal is inversely proportional to the activity of the sirtuin protein). Results are read on a microplate fluorescence polarization reader (Molecular Devices Spectramax MD) with appropriate excitation and emission filters.
The fluorescence polarization assays may be conducted as follows: 0.5 μM peptide substrate and 50 μM βNAD^+ is incubated with 2 nM of SIRT3 for 60 minutes at 37° C. in a reaction buffer (25 mM Tris-acetate pH8, 137 mM Na—Ac, 2.7 mM K—Ac, 1 mM Mg—Ac, 0.1% Pluronic F127, 10 mM CaCl2, 1 mM TCEP, 0.025% BSA). Test compounds are solubilized in DMSO and are added to the reaction at 11 concentrations ranging from 0.7 μM to 100 μM. The SIRT3 protein used in the assays corresponded to amino acid residues 102-399 of human SIRT3 with an N-terminal His-tag. The protein was overexpressed in E. coli and purified on a nickel chelate column using standard techniques. After the 60 minute incubation with SIRT3, nicotinamide is added to the reaction to a final concentration of 3 mM to stop the deacetylation reaction and 0.5 μg/mL of trypsin is added to cleave the deacetylated substrate. The reaction is incubated for 30 minutes at 37° C. in the presence of 1 mM streptavidin. Fluorescent polarization is determined at excitation (650 nm) and emissions (680 nm) wavelengths. The level of activity of the sirtuin protein in the presence of the various concentrations of test compound are then determined and may be compared to the level of activity of the sirtuin protein in the absence of the test compound, and/or the level of activity of the sirtuin proteins in the negative control (e.g., level of inhibition) and positive control (e.g., level of activation) described below.
A control for activation of sirtuin activity is conducted using 0.5 μg/mL of sirtuin protein to reach baseline deacetylation of the substrate (e.g., to determine normalized sirtuin activity).

SIRT1 [2] = molecular target: T2, SIRT1 (Homo sapiens, UniProt Q96EB6); experiment: Fluorescence polarization assay, SIRT1 deacetylation of p53-based peptide substrate; assay type: biochemical; details: for EC50: activation of SIRT1, compounds 1-18 with peptide 1 (MR121), compounds 19-56 with peptide 2 (5TMR), read-out: ED50 (the source's name); for IC50: inhibition of SIRT1
T2 sequence (Q96EB6 1-747): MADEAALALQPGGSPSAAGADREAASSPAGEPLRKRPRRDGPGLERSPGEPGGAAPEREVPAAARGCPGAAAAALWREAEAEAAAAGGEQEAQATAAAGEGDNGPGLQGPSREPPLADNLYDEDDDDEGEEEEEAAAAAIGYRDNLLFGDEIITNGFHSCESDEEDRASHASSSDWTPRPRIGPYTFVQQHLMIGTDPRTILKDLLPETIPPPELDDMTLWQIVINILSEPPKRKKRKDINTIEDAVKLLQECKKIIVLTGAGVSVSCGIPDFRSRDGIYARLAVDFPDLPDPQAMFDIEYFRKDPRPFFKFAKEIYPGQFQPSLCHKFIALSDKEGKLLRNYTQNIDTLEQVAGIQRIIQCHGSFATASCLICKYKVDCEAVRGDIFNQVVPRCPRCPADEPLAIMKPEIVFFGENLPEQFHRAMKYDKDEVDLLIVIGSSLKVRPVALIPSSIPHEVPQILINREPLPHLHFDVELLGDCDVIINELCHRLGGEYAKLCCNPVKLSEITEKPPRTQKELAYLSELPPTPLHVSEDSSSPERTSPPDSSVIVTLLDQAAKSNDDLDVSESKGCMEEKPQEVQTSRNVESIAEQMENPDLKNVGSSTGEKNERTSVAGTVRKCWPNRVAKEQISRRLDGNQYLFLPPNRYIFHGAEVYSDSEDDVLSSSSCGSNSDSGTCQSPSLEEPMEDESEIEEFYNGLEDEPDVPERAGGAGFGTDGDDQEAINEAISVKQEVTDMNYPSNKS

SIRT1 [3] = molecular target: T2, SIRT1; details: Sirt1, Biomol Fluor de Lys product literature, cited from earlier work
SIRT1 [4] = molecular target: T2, SIRT1; details: Sirt1, nicotinamide release, cited from earlier work
Sirt2 = molecular target: T3, Sirt2 (Homo sapiens, UniProt Q8IXJ6); details: Sirt2, Biomol Fluor de Lys product literature, cited from earlier work
T3 sequence (Q8IXJ6 1-389): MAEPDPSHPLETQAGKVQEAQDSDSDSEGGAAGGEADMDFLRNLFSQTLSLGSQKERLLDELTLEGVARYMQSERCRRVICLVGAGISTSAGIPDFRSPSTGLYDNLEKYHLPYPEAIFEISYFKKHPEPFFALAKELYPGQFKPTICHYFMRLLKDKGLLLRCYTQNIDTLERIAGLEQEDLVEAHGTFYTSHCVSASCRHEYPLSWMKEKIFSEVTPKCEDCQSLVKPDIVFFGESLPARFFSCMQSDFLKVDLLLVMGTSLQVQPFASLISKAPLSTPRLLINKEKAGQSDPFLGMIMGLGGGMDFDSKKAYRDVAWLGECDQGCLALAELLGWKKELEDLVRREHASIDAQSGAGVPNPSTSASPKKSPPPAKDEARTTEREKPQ

Sirt3 [5] = molecular target: T4, Sirt3 (Homo sapiens, UniProt Q9NTG7); details: Sirt3, Biomol Fluor de Lys product literature, cited from earlier work
T4 sequence (Q9NTG7 1-399): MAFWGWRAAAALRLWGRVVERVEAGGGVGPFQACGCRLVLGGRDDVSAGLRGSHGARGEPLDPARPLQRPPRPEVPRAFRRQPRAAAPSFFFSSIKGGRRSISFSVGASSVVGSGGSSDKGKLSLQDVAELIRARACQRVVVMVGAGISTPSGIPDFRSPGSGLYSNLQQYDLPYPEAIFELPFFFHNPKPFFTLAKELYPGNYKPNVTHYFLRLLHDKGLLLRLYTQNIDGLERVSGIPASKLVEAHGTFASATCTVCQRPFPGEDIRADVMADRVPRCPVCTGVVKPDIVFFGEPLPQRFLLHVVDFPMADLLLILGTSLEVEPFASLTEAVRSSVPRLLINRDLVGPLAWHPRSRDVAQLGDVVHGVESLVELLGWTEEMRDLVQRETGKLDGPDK

[6] = Km of NAD with the named peptide substrate, read-out: NAD Km
[7] = Km of NAD with the named peptide substrate, Kaeberlein et al., read-out: NAD Km
[8] = Kaeberlein et al., read-out: Peptide Km
[9] = read-out: ED50 (the source's name)

EC50 (SIRT3 [1]; activation of SIRT3, read-out: ED50 for activation of SIRT3): > 300 µM
Compound: Oc1ccc(C=Cc2cc(O)cc(O)c2)cc1 [resveratrol, reference compound]

EC50 (SIRT1 [2]): 101 to 150 µM
Compound: O=C(NCCN1CCOCC1)c1cc(-c2cccs2)nc2ccccc12 [Compound 5]

EC50 (SIRT1 [2]): 101 to 150 µM
Compound: O=C(NCCN1CCOCC1)c1cc(-c2cccs2)nc2ccc(F)cc12 [Compound 7]

EC50 (SIRT1 [2]): 101 to 150 µM
Compound: FC(F)(F)c1ccnc(NNc2c3ccccc3nc3ccccc23)n1 [Compound 33]

Compound: p53 (aa 379-382) *FL: p53 (aa 379-382) peptide substrate with fluorescent label, Biomol Fluor de Lys SIRT1 kit (RHKK; also: fluorescent label; UniProt P04637 379-382, looked up, fragment)
Km (SIRT1 [3]; [6]): 558 µM | Km (SIRT1 [3]; read-out: Peptide Km): 64 µM

EC50 (SIRT1 [2]): 51 to 100 µM
Compound: O=C(NNc1c2ccccc2nc2ccccc12)c1ccccn1 [Compound 2]

Compound: p53 (aa 368-386) *FL: p53 (aa 368-386) peptide substrate with fluorescent label, Kaeberlein et al. (HLKSKKGQSTSRHKKLMFK; also: fluorescent label; UniProt P04637 368-386, looked up, fragment)
Km (SIRT1 [4]; [7]): 192 µM | Km (SIRT1 [4]; [8]): 87.6 µM

IC50 (SIRT1 [2]): < 50 µM
Compound: O=C(NNc1c2c(nc3ccccc13)CCCC2)c1ccccn1 [Compound 73]

IC50 (SIRT1 [2]): 101 to 150 µM
Compound: COc1cc(NC(=O)Nc2c3c(nc4ccccc24)CCCC3)cc(OC)c1OC [Compound 78]

Compound: p53 19 mer (aa 368-386) no FL: p53 19 mer (aa 368-386) peptide substrate without fluorescent label, McDonagh et al. (HLKSKKGQSTSRHKKLMFK; UniProt P04637 368-386, looked up, fragment)
Km (SIRT1 [4]; Km of NAD with the named peptide substrate, McDonagh et al., read-out: NAD Km): 133 µM | Km (SIRT1 [4]; McDonagh et al., read-out: Peptide Km): 10.3 µM

IC50 (SIRT1 [2]): > 150 µM
Compound: Cc1nc(-c2cccc(NC(=O)c3c4ccccc4nc4ccccc34)c2)cs1 [Compound 76]

Compound: p53 (aa 368-386) no FL: p53 (aa 368-386) peptide substrate without fluorescent label, Kaeberlein et al. (HLKSKKGQSTSRHKKLMFK; UniProt P04637 368-386, looked up, fragment)
Km (SIRT1 [4]; [7]): 132 µM | Km (SIRT1 [4]; [8]): 10.3 µM

IC50 (SIRT1 [2]): > 150 µM
Compound: Cc1ccc2nc(-c3ccco3)cc(C(=O)NCCCCN3CCOCC3)c2c1 [Compound 72]

EC50 (SIRT3 [1]; [9]): 51 to 100 µM
Compound: O=C(O)c1c(O)c(-c2ccccc2)nc2ccccc12 [Compound 80]

IC50 (SIRT1 [2]): > 150 µM
Compound: COc1ccccc1NC(=O)Nc1c2c(nc3ccccc13)CCCC2 [Compound 77]

Compound: p53 (aa 317-320) *FL: p53 (aa 317-320) peptide substrate with fluorescent label, Biomol Fluor de Lys SIRT2 and SIRT3 kits (QPKK; also: fluorescent label; UniProt P04637 317-320, looked up, fragment)
Km (Sirt2; [6]): 547 µM | Km (Sirt2; read-out: Peptide Km): 186 µM | Km (Sirt3 [5]; [6]): 2030 µM | Km (Sirt3 [5]; read-out: Peptide Km): 32 µM

EC50 (SIRT1 [2]): 51 to 100 µM
Compound: Cc1ccc2nc(-c3ccccc3)cc(C(=O)NCCN3CCOCC3)c2c1 [Compound 12]

IC50 (SIRT1 [2]): < 50 µM
Compound: COc1cc(C(=O)NNC(=O)c2c3ccccc3nc3ccccc23)cc(OC)c1OC [Compound 75]

IC50 (SIRT3 [1]): 101 to 150 µM
Compound: CC(=O)Nc1ccc(Nc2cc(C)nc3c(C)cccc23)cc1 [Compound 81]

EC50 (SIRT3 [1]; [9]): 51 to 100 µM
Compound: O=C(NNc1c2ccccc2nc2ccccc12)c1cccnc1 [Compound 11]

IC50 (SIRT1 [2]): > 150 µM
Compound: Cc1cc(C)nc(Nc2c3ccccc3nc3ccccc23)c1 [Compound 74]

EC50 (SIRT3 [1]; [9]): 51 to 100 µM
Compound: O=C(NCc1ccncc1)c1cc(-c2ccsc2)nc2ccccc12 [Compound 1]

IC50 (SIRT1 [2]): > 150 µM
Compound: O=C(Nc1ccccc1)c1c2c(nc3ccccc13)-c1ccccc1CC2 [Compound 79]

Reference: patent publication US20080293081A1, “Fluorescence Polarization Assays for Acetyltransferase/Deacetylase Activity” (Sirtris Pharmaceuticals, Inc., priority 2005, published 2008)
